In patent US20250230193A1, “CYCLIC COMPOUND HAVING SELECTIVE KRAS INHIBITORY EFFECT ON HRAS AND NRAS” (CHUGAI SEIYAKU KABUSHIKI KAISHA, priority 2022, published 2025):

Experiments:
[1] = biological target: GDP-bound NRAS wild-type protein (Homo sapiens, UniProt P01111); assay: Binding to NRAS by surface plasmon resonance (SPR), Single Cycle Kinetics; conditions: SPR, GDP-bound NRAS wild-type vs GDP-bound KRAS wild-type
[2] = biological target: GDP-bound HRAS wild-type protein (Homo sapiens, UniProt P01112); assay: Binding to HRAS by surface plasmon resonance (SPR), Single Cycle Kinetics; conditions: SPR, GDP-bound HRAS wild-type vs GDP-bound KRAS wild-type
GDP-bound HRAS wild-type protein, sequence (P01112 whole entry): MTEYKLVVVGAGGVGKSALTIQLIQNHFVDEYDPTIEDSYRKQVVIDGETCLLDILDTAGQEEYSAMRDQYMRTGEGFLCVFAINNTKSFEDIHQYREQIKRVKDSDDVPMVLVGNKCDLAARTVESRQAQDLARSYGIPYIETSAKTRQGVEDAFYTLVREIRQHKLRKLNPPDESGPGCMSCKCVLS

GDP-bound NRAS wild-type protein, sequence (P01111 whole entry): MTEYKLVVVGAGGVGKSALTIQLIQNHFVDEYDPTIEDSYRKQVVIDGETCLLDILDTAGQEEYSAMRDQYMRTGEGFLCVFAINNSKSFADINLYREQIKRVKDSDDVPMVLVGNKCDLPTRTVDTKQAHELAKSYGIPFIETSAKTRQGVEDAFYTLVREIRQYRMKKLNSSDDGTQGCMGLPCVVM

SMILES	NRAS/KRAS (ratio of KD value with respect to NRAS to KD value with respect to KRAS) [1]	HRAS/KRAS (ratio of KD value with respect to HRAS to KD value with respect to KRAS) [2]
CCOC[C@H]1C(=O)N[C@@H]([C@@H](C)CC)C(=O)N(C)CC(=O)N(C)[C@H]2C/C=C\CCN(C2=O)[C@@H](Cc2ccc(C)cc2)C(=O)N(C)CC(=O)N[C@@H](CCc2ccc(C(F)(F)F)c(Cl)c2)C(=O)N2C[C@@H](C)C[C@H]2C(=O)NC2(CC(C)(C)C2)C(=O)N(C)[C@@H](C2CCCC2)C(=O)N(C)[C@H](C(=O)N(C)C)CC(=O)N1C [PP2394]	A (a compound having 10 or more and less than 20 is denoted as A)	B (a compound having 3 or more and less than 10 is denoted as B)
CCOC[C@H]1C(=O)N[C@@H]([C@@H](C)CC)C(=O)N(C)CC(=O)N(C)[C@H]2C/C=C\CCN(C2=O)[C@@H](Cc2ccc(C)cc2)C(=O)N(C)CC(=O)N[C@@H](CCc2ccc(C(F)(F)F)c(Cl)c2)C(=O)N2C[C@H](OCC)C[C@H]2C(=O)NC2(CC(C)(C)C2)C(=O)N(C)[C@@H](C2CCCC2)C(=O)N(C)[C@H](C(=O)N(C)C)CC(=O)N1C [PP2395]	A (a compound having 10 or more and less than 20 is denoted as A)	B (a compound having 3 or more and less than 10 is denoted as B)
CCO[C@@H]1C[C@H]2C(=O)NC3(CC(C)(C)C3)C(=O)N(C)[C@@H](C3CCCC3)C(=O)N(C)[C@H](C(=O)N(C)CC)CC(=O)N(C)[C@@H](COC)C(=O)N[C@@H]([C@@H](C)CC)C(=O)N(C)CC(=O)N(C)[C@H]3C/C=C\CCN(C3=O)[C@@H](Cc3ccc(C)cc3)C(=O)N(C)CC(=O)N[C@@H](CCc3cc(F)c(C(F)(F)F)c(F)c3)C(=O)N2C1 [PP2396]	A (a compound having 10 or more and less than 20 is denoted as A)	A (a compound having 10 or more and less than 20 is denoted as A)
CCOC[C@H]1C(=O)N[C@@H]([C@@H](C)CC)C(=O)N(C)CC(=O)N(C)[C@H]2C/C=C\CCN(C2=O)[C@@H](Cc2ccc(C)cc2)C(=O)N(C)CC(=O)N[C@@H](CCc2cc(F)c(C(F)(F)F)c(F)c2)C(=O)N2C[C@H](OCC)C[C@H]2C(=O)NC2(CC(C)(C)C2)C(=O)N(C)[C@@H](C2CCCC2)C(=O)N(C)[C@H](C(=O)N(C)C)CC(=O)N1C [PP2397]	A (a compound having 10 or more and less than 20 is denoted as A)	A (a compound having 10 or more and less than 20 is denoted as A)
CCO[C@@H]1C[C@H]2C(=O)NC3(CC(C)(C)C3)C(=O)N(C)[C@@H](C3CCCC3)C(=O)N(C)[C@H](C(=O)N(CC)CC)CC(=O)N(C)[C@@H](COC)C(=O)N[C@@H]([C@@H](C)CC)C(=O)N(C)CC(=O)N(C)[C@H]3C/C=C\CCN(C3=O)[C@@H](Cc3ccc(C)cc3)C(=O)N(C)CC(=O)N[C@@H](CCc3ccc(C(F)(F)F)c(OC)c3)C(=O)N2C1 [PP2398]	A (a compound having 10 or more and less than 20 is denoted as A)	A (a compound having 10 or more and less than 20 is denoted as A)
CC[C@H](C)[C@@H]1NC(=O)[C@H](COC)N(C)C(=O)C[C@@H](C(=O)N(CC)CC)N(C)C(=O)[C@H](C2CCCC2)N(C)C(=O)C2(CC(C)(C)C2)NC(=O)[C@@H]2C[C@H](C)CN2C(=O)[C@H](CCc2ccc(C(F)(F)F)c(Cl)c2)NC(=O)CN(C)C(=O)[C@H](Cc2ccc(C)cc2)N2CC/C=C\C[C@@H](C2=O)N(C)C(=O)CN(C)C1=O [PP2399]	AA (a compound having 20 or more is denoted as AA)	A (a compound having 10 or more and less than 20 is denoted as A)
CCO[C@@H]1C[C@H]2C(=O)NC3(CC(C)(C)C3)C(=O)N(C)[C@@H](C3CCCC3)C(=O)N(C)[C@H](C(=O)N(CC)CC)CC(=O)N(C)[C@@H](COC)C(=O)N[C@@H]([C@@H](C)CC)C(=O)N(C)CC(=O)N(C)[C@H]3C/C=C\CCN(C3=O)[C@@H](Cc3ccc(C)cc3)C(=O)N(C)CC(=O)N[C@@H](CCc3ccc(C(F)(F)F)c(Cl)c3)C(=O)N2C1 [PP2400]	A (a compound having 10 or more and less than 20 is denoted as A)	A (a compound having 10 or more and less than 20 is denoted as A)
CCOC[C@H]1C(=O)N[C@@H]([C@@H](C)CC)C(=O)N(C)CC(=O)N(C)[C@H]2C/C=C\CCN(C2=O)[C@@H](Cc2ccc(C)cc2)C(=O)N(C)CC(=O)N[C@@H](CCc2ccc(C(F)(F)F)c(Cl)c2)C(=O)N2C[C@H](OCC)C[C@H]2C(=O)NC2(CC(C)(C)C2)C(=O)N(C)[C@@H](C2CCCC2)C(=O)N(C)[C@H](C(=O)N(C)CC)CC(=O)N1C [PP2401]	A (a compound having 10 or more and less than 20 is denoted as A)	A (a compound having 10 or more and less than 20 is denoted as A)
CCCOC[C@H]1C(=O)N[C@@H]([C@@H](C)CC)C(=O)N(C)CC(=O)N(C)[C@H]2C/C=C\CCN(C2=O)[C@@H](Cc2ccc(C)cc2)C(=O)N(C)CC(=O)N[C@@H](CCc2ccc(C(F)(F)F)c(Cl)c2)C(=O)N2C[C@H](OCC)C[C@H]2C(=O)NC2(CC(C)(C)C2)C(=O)N(C)[C@@H](C2CCCC2)C(=O)N(C)[C@H](C(=O)N(C)C)CC(=O)N1C [PP2402]	A (a compound having 10 or more and less than 20 is denoted as A)	A (a compound having 10 or more and less than 20 is denoted as A)
CCO[C@@H]1C[C@H]2C(=O)NC3(CC(C)(C)C3)C(=O)N(C)[C@@H](C3CCCC3)C(=O)N(C)[C@H](C(=O)N(CC)CC)CC(=O)N(C)[C@@H](COC)C(=O)N[C@@H]([C@@H](C)CC)C(=O)N(C)CC(=O)N(C)[C@H]3C/C=C\CCN(C3=O)[C@@H](Cc3ccc(C)cc3)C(=O)N(C)CC(=O)N[C@@H](CCc3cc(F)c(C(F)(F)F)c(F)c3)C(=O)N2C1 [PP2403]	A (a compound having 10 or more and less than 20 is denoted as A)	A (a compound having 10 or more and less than 20 is denoted as A)
CCOC[C@H]1C(=O)N[C@@H]([C@@H](C)CC)C(=O)N(C)CC(=O)N(C)[C@H]2C/C=C\CCN(C2=O)[C@@H](Cc2ccc(C)cc2)C(=O)N(C)CC(=O)N[C@@H](CCc2cc(F)c(C(F)(F)F)c(F)c2)C(=O)N2C[C@H](OCC)C[C@H]2C(=O)NC2(CC(C)(C)C2)C(=O)N(C)[C@@H](C2CCCC2)C(=O)N(C)[C@H](C(=O)N(C)CC)CC(=O)N1C [PP2404]	A (a compound having 10 or more and less than 20 is denoted as A)	A (a compound having 10 or more and less than 20 is denoted as A)
CCOC[C@H]1C(=O)N[C@@H]([C@@H](C)CC)C(=O)N(C)CC(=O)N(C)[C@H]2C/C=C\CCN(C2=O)[C@@H](Cc2ccc(C)cc2)C(=O)N(C)CC(=O)N[C@@H](CCc2ccc(C(F)(F)F)c(OC)c2)C(=O)N2C[C@@H](C)C[C@H]2C(=O)NC2(CC(C)(C)C2)C(=O)N(C)[C@@H](C2CCCC2)C(=O)N(C)[C@H](C(=O)N(CC)CC)CC(=O)N1C [PP2405]	A (a compound having 10 or more and less than 20 is denoted as A)	A (a compound having 10 or more and less than 20 is denoted as A)
CCOC[C@H]1C(=O)N[C@@H]([C@@H](C)CC)C(=O)N(C)CC(=O)N(C)[C@H]2C/C=C\CCN(C2=O)[C@@H](Cc2ccc(C)cc2)C(=O)N(C)CC(=O)N[C@@H](CCc2ccc(C(F)(F)F)c(OC)c2)C(=O)N2C[C@H](OCC)C[C@H]2C(=O)NC2(CC(C)(C)C2)C(=O)N(C)[C@@H](C2CCCC2)C(=O)N(C)[C@H](C(=O)N(CC)CC)CC(=O)N1C [PP2406]	A (a compound having 10 or more and less than 20 is denoted as A)	A (a compound having 10 or more and less than 20 is denoted as A)
CCOC[C@H]1C(=O)N[C@@H]([C@@H](C)CC)C(=O)N(C)CC(=O)N(C)[C@H]2C/C=C\CCN(C2=O)[C@@H](Cc2ccc(C)cc2)C(=O)N(C)CC(=O)N[C@@H](CCc2cc(F)c(C(F)(F)F)c(F)c2)C(=O)N2C[C@@H](C)C[C@H]2C(=O)NC2(CC(C)(C)C2)C(=O)N(C)[C@@H](C2CCCC2)C(=O)N(C)[C@H](C(=O)N(CC)CC)CC(=O)N1C [PP2407]	A (a compound having 10 or more and less than 20 is denoted as A)	A (a compound having 10 or more and less than 20 is denoted as A)
CCOC[C@H]1C(=O)N[C@@H]([C@@H](C)CC)C(=O)N(C)CC(=O)N(C)[C@H]2C/C=C\CCN(C2=O)[C@@H](Cc2ccc(C)cc2)C(=O)N(C)CC(=O)N[C@@H](CCc2cc(F)c(C(F)(F)F)c(F)c2)C(=O)N2C[C@H](OCC)C[C@H]2C(=O)NC2(CC(C)(C)C2)C(=O)N(C)[C@@H](C2CCCC2)C(=O)N(C)[C@H](C(=O)N(CC)CC)CC(=O)N1C [PP2408]	A (a compound having 10 or more and less than 20 is denoted as A)	A (a compound having 10 or more and less than 20 is denoted as A)
CC[C@H](C)[C@@H]1NC(=O)[C@H](CC(C)C)N(C)C(=O)C[C@@H](C(=O)N(C)C)N(C)C(=O)[C@H](C2CCCC2)N(C)C(=O)C2(CC(C)(C)C2)NC(=O)[C@@H]2C[C@H](C)CN2C(=O)[C@H](CCc2ccc(C(F)(F)F)c(OC)c2)NC(=O)CN(C)C(=O)[C@H](Cc2ccc(C)cc2)N2CC/C=C\C[C@@H](C2=O)N(C)C(=O)[C@@H]2CCCN2C1=O [PP2409]	A (a compound having 10 or more and less than 20 is denoted as A)	B (a compound having 3 or more and less than 10 is denoted as B)
